A short description of test [1]: Cytotoxicity against human HT-29 cells after 72 hrs by MTT assay. Conditions: HT-29, 72 h. For orientation: Tetrazolium dyes change colour on reduction, which living cells bring about.
The nature of test [2]: Cytotoxicity against human MKN45 cells after 72 hrs by MTT assay. Conditions: MKN-45, 72 h.
Test [3] can be described thus: Cytotoxicity against human A549 cells after 72 hrs by MTT assay. The following applies: A549, 72 h.
The target in test [4] is Hepatocyte growth factor receptor (Homo sapiens, UniProt P08581). Put plainly: Inhibition of c-MET (unknown origin) using poly (Glu, Tyr) 4:1 as substrate after 30 mins by HTRF assay. (In general: Time-resolved FRET reads energy transfer from a long-lived donor to a nearby acceptor.)
Sequence of Hepatocyte growth factor receptor (P08581 whole entry): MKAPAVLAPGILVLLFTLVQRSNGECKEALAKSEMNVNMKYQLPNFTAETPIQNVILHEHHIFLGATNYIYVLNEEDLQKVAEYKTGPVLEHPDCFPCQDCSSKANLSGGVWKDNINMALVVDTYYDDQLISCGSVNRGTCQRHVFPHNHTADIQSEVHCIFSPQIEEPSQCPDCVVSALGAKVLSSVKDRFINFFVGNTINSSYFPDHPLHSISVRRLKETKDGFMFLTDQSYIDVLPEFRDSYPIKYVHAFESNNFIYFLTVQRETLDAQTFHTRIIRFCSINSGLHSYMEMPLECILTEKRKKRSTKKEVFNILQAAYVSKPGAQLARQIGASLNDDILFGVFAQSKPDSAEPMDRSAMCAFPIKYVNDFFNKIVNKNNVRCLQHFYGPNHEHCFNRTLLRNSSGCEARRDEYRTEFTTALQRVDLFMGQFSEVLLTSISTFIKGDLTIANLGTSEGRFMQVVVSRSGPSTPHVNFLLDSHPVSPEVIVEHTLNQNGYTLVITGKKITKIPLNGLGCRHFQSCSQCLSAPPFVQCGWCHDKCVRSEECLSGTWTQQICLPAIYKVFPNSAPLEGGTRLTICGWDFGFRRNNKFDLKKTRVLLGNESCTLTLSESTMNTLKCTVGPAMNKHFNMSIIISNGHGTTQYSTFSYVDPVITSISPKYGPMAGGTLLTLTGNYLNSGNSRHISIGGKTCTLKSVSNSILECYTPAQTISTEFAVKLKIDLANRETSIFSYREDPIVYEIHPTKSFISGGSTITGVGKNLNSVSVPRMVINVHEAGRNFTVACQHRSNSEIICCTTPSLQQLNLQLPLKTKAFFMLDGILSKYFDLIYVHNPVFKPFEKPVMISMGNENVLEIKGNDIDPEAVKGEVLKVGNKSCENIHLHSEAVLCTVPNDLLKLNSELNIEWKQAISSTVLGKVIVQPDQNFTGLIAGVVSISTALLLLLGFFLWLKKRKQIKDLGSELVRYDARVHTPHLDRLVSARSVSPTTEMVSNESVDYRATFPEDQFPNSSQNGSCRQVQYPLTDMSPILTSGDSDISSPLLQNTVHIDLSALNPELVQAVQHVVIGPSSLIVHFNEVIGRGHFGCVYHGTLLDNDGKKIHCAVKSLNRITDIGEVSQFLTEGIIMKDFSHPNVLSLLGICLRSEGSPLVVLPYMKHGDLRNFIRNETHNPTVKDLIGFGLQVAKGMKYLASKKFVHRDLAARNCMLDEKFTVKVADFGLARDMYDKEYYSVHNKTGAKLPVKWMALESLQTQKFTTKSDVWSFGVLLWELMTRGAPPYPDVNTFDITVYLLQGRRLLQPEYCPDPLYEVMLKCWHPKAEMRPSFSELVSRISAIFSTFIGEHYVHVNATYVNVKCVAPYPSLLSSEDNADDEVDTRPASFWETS
Test [5] concerns A549. Kind of test: Potency index, ratio of foretinib IC50 to compound IC50 for human A549 cells. The test is classed as functional.
The target of test [6] is T1, Receptor-type tyrosine-protein kinase FLT3 (Homo sapiens, UniProt P36888).
T1 sequence (P36888 whole entry): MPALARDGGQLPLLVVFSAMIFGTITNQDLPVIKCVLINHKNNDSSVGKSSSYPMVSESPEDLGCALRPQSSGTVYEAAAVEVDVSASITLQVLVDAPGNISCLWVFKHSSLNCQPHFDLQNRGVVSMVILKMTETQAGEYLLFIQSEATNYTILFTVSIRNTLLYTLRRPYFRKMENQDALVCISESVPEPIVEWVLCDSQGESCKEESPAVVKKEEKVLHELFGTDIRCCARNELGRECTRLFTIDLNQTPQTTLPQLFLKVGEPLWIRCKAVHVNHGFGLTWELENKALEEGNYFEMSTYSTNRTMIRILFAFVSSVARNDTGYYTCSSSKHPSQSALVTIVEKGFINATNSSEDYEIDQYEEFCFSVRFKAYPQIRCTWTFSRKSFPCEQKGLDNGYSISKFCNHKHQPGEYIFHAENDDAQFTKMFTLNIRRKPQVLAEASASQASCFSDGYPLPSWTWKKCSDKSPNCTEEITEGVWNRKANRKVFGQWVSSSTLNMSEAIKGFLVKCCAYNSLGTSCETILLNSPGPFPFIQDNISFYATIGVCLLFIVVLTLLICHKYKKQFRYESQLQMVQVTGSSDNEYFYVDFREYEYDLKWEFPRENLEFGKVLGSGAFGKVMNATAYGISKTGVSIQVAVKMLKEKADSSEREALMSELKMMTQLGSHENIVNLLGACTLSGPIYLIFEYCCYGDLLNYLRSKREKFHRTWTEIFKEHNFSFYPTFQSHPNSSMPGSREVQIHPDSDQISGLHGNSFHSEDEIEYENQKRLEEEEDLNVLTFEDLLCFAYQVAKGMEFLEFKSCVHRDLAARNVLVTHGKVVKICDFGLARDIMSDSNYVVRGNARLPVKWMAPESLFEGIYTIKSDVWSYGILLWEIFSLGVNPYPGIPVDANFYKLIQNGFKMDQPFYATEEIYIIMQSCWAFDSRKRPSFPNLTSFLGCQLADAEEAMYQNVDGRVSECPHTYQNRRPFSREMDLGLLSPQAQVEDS
Put plainly: Inhibition of FLT3 (unknown origin).

Test [7] relates to MKN-45. Kind of test: Potency index, ratio of foretinib IC50 to compound IC50 for human MKN45 cells. It is filed as functional.
Test [8] has as its system HT-29. Kind of test: Potency index, ratio of foretinib IC50 to compound IC50 for human HT-29 cells. It is filed as functional.
The target in test [9] is ALK tyrosine kinase receptor (Homo sapiens, UniProt Q9UM73). Kind of test: Inhibition of ALK (unknown origin).
Test [10] deals with Epidermal growth factor receptor (Homo sapiens, UniProt P00533). Put plainly: Inhibition of EGFR (unknown origin).
Sequence of Epidermal growth factor receptor (P00533 whole entry): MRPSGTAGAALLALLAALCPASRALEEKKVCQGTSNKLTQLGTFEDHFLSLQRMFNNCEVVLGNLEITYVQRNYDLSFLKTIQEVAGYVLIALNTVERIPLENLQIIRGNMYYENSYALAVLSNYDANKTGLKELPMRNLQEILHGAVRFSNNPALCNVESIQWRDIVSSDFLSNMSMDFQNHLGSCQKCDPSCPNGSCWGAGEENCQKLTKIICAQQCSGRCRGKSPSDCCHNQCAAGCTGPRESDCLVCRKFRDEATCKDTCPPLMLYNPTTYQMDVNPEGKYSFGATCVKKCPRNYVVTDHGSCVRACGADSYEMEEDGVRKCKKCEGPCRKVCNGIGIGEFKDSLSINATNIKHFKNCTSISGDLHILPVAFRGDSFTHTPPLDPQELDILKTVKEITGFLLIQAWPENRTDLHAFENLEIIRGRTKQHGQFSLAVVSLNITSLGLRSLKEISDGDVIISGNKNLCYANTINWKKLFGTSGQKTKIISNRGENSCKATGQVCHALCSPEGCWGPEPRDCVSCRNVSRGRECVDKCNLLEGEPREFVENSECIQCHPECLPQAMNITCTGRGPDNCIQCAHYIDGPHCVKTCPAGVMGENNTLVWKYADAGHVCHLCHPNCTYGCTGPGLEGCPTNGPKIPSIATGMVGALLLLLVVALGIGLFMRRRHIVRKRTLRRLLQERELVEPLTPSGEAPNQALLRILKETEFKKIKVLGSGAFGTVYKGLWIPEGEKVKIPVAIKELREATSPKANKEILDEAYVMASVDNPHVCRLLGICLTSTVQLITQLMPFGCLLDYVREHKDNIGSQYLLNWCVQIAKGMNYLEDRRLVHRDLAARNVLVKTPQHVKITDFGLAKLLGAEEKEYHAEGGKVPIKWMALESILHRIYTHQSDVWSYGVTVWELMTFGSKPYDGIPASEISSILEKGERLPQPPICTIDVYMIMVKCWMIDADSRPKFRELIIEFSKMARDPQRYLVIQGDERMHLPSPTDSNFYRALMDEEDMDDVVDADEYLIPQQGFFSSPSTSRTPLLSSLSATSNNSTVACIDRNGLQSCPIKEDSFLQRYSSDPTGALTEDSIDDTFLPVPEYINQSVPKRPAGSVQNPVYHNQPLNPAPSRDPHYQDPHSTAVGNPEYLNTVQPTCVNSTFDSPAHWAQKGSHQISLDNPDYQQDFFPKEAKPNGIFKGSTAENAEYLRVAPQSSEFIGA
Test [11] has as its target Vascular endothelial growth factor receptor 2 (Homo sapiens, UniProt P35968). Kind of test: Inhibition of VEGFR-2 (unknown origin).
Test [12] has as its target Mast/stem cell growth factor receptor Kit (Homo sapiens, UniProt P10721). Put plainly: Inhibition of c-KIT (unknown origin).

Where only a bound is given, the exact number is not on record here.

Sequence of Vascular endothelial growth factor receptor 2 (P35968 whole entry): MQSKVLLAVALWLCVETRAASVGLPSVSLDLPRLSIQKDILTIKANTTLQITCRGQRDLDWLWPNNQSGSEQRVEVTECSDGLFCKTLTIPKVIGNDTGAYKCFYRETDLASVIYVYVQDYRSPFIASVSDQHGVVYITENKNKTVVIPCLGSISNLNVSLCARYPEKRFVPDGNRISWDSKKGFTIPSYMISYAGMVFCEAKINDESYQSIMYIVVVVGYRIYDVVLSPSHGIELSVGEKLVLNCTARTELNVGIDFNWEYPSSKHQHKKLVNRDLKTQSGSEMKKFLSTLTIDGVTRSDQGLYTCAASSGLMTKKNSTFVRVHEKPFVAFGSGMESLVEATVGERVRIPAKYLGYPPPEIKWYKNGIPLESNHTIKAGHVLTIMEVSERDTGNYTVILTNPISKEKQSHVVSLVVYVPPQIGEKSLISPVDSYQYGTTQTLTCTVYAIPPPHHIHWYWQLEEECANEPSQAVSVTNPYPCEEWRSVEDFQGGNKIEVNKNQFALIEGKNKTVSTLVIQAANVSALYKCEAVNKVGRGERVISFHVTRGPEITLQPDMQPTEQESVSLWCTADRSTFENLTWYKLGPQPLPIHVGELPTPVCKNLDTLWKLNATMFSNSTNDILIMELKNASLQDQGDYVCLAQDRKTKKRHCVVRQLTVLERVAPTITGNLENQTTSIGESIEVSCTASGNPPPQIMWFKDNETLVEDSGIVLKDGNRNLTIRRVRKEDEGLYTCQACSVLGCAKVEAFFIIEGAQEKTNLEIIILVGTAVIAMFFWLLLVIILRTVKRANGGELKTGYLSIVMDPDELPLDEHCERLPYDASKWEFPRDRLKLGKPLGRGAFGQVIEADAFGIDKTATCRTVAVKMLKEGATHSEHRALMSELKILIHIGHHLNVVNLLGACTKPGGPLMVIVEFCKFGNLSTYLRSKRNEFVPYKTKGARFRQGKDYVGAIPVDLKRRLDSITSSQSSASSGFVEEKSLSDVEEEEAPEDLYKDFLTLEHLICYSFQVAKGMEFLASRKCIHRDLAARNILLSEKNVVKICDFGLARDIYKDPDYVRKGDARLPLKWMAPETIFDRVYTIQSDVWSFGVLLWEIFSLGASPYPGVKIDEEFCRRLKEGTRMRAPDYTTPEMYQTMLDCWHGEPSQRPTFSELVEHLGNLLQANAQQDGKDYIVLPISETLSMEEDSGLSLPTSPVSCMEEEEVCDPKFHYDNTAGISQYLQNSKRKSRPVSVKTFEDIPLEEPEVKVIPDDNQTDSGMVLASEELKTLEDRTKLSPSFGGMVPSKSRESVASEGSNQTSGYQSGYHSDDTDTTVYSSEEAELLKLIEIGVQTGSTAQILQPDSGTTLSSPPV
Sequence of Mast/stem cell growth factor receptor Kit (P10721 whole entry): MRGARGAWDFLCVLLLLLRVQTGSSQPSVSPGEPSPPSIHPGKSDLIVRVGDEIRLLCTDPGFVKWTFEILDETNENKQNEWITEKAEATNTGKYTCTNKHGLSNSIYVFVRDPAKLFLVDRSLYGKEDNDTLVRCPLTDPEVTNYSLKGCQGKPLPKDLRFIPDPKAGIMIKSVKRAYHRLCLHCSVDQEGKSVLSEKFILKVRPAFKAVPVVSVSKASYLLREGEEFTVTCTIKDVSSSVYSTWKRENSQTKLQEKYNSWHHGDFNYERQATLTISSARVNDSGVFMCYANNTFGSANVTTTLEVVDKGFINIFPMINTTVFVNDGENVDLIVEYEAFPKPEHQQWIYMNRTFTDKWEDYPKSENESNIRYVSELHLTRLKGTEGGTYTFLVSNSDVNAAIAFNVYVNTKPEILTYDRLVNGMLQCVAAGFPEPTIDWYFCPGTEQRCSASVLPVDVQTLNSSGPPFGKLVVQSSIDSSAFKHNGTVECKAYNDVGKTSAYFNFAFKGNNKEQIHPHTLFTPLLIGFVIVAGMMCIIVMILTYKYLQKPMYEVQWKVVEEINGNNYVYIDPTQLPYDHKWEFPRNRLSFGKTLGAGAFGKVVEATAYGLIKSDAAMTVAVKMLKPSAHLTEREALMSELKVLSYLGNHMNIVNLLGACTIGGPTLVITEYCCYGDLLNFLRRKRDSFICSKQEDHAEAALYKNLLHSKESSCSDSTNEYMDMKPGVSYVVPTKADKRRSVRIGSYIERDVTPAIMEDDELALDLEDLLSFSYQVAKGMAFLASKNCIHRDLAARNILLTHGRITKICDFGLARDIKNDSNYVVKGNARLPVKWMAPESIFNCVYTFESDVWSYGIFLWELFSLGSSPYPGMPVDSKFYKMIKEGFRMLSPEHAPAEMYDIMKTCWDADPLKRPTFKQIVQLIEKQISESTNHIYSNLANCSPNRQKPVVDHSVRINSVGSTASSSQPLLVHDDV

`COc1cc2c(Oc3ccc(NC(=O)/C=C/S(=O)(=O)c4ccccc4OC)cc3F)ccnc2cc1OCCCN1CCN(C)CC1`: the IC50 (in general, the concentration that inhibits the measured activity by half) in test [1] was determined as 270 nM; in test [2], 430 nM; in [3], 320 nM.
With `COc1cc2c(Oc3ccc(NC(=O)c4cn(-c5ccc(Cl)cc5)cn4)cc3F)ccnc2cc1OCCCN1CCN(C)CC1`, the IC50 in [1] stood at 1350 nM; in [2] it was 4110 nM; in [3], 5200 nM.
Consider `COc1cc2c(Oc3ccc(NC(=O)c4cn(-c5ccccc5OC)cn4)cc3F)ccnc2cc1OCCCN1CCOCC1`, for which the IC50 amounted to 200 nM in test [1], 320 nM in test [2] and 150 nM in test [3].
For `COc1cc2c(Oc3ccc(NC(=O)/C=C/S(=O)(=O)c4ccccc4OC)cc3F)ccnc2cc1OCCCN1CCCCC1` the same measures were 660 nM, 980 nM and 470 nM.
Regarding `COc1cc2c(Oc3ccc(NC(=O)/C=C/S(=O)(=O)c4ccc(C)cc4)cc3F)ccnc2cc1OCCCN1CCN(C)CC1`, the IC50 in [1] was determined as 2070 nM; in test [2], 2510 nM; in test [3] it was 1510 nM.
The matching figures for `COc1cc2c(Oc3ccc(NC(=O)c4cn(-c5ccccc5OC)cn4)cc3F)ccnc2cc1OCCCN1CCCCC1`: 100 nM, 260 nM and 120 nM.
For `COc1cc2c(Oc3ccc(NC(=O)c4cn(-c5ccc(Cl)cc5)cn4)cc3F)ccnc2cc1OCCCN1CCCCC1` the same measures were 2780 nM, 5910 nM and 6560 nM.
On to `COc1cc2c(Oc3ccc(NC(=O)c4cn(-c5cc(C)ccc5C)cn4)cc3F)ccnc2cc1OCCCN1CCN(C)CC1`, for which the IC50 worked out at 470 nM in test [1], 650 nM in test [2] and 350 nM in [3].
Take `COc1ccc(S(=O)(=O)/C=C/C(=O)Nc2ccc(Oc3ccnc4cc(OCCCN5CCCCC5)c(OC)cc34)c(F)c2)cc1`: the half-maximal inhibitory concentration (IC50) is 1650 nM in test [1], 3580 nM in test [2] and 2220 nM in test [3].
Turning to `COc1cc2c(Oc3ccc(NC(=O)c4cn(-c5ccccc5OC(F)(F)F)cn4)cc3F)ccnc2cc1OCCCN1CCCCC1`, the IC50 is 250 nM in test [1], 190 nM in [2] and 270 nM in [3].
Regarding `COc1cc2c(Oc3ccc(NC(=O)c4cn(-c5ccccc5OC(F)(F)F)cn4)cc3F)ccnc2cc1OCCCN1CCOCC1`, the IC50 in [1] came to 430 nM; in [2], 180 nM; in test [3], 520 nM.
For `COc1cc2c(Oc3ccc(NC(=O)/C=C/S(=O)(=O)c4ccccc4F)cc3F)ccnc2cc1OCCCN1CCN(C)CC1`, the IC50 in test [1] came out at 150 nM; in test [2], 280 nM; in test [3], 150 nM.
Take `COc1cc2c(Oc3ccc(NC(=O)/C=C/S(=O)(=O)c4ccccc4OC)cc3F)ccnc2cc1OCCCN1CCC(C)CC1`: the IC50 in test [1] is 1960 nM; in test [2], 2030 nM; in [3] it was 3000 nM.
For `COc1ccc(S(=O)(=O)/C=C/C(=O)Nc2ccc(Oc3ccnc4cc(OCCCN5CCN(C)CC5)c(OC)cc34)c(F)c2)cc1` the same measures were 1660 nM, 2770 nM and 1870 nM.
For `COc1cc2c(Oc3ccc(NC(=O)c4cn(-c5ccc(Cl)cc5Cl)cn4)cc3F)ccnc2cc1OCCCN1CCCCC1` the same measures were 4300 nM, 6240 nM and 7490 nM.
For `COc1cc2c(Oc3ccc(NC(=O)c4cn(-c5cc(C)ccc5C)cn4)cc3F)ccnc2cc1OCCCN1CCCCC1` the same measures were 580 nM, 830 nM and 510 nM.
Take `COc1cc2c(Oc3ccc(NC(=O)c4cn(-c5ccccc5OC)cn4)cc3F)ccnc2cc1OCCCN1CCN(C)CC1`: the IC50 was 1.1 nM in test [4]; 80 nM in test [1]; 400 nM in test [6]; 220 nM in [2]; over 3330 nM in [9]; 690 nM in test [10]. Also, the IC50 is 589 nM in test [11], 270 nM in test [12] and 70 nM in test [3]. The “Ratio IC50” value in test [5] was 2.1; in test [7], 1.4; in test [8], 3.1.
For `COc1cc2c(Oc3ccc(NC(=O)c4cn(-c5ccc(Cl)cc5Cl)cn4)cc3F)ccnc2cc1OCCCN1CCN(C)CC1`, the IC50 in [1] came out at 3050 nM; in test [2], 4840 nM; in test [3] it was 3850 nM.
For `COc1cc2c(Oc3ccc(NC(=O)/C=C/S(=O)(=O)c4ccc(C)cc4)cc3F)ccnc2cc1OCCCN1CCCCC1` the same measures were 4230 nM, 1690 nM and 2310 nM.
For `COc1cc2c(Oc3ccc(NC(=O)/C=C/S(=O)(=O)c4ccccc4F)cc3F)ccnc2cc1OCCCN1CCC(C)CC1` the same measures were 760 nM, 840 nM and 410 nM.
The matching figures for `COc1cc2c(Oc3ccc(NC(=O)/C=C/S(=O)(=O)c4ccccc4F)cc3F)ccnc2cc1OCCCN1CCOCC1`: 600 nM, 420 nM and 210 nM.
As for `COc1cc2c(Oc3ccc(NC(=O)c4cn(-c5ccccc5OC(F)(F)F)cn4)cc3F)ccnc2cc1OCCCN1CCC(C)CC1`, the IC50 in [1] was 690 nM; in test [2] it was 150 nM; in [3], 760 nM.
With `COc1cc2c(Oc3ccc(NC(=O)/C=C/S(=O)(=O)c4ccccc4OC)cc3F)ccnc2cc1OCCCN1CCOCC1`, the IC50 in test [1] was 1180 nM; in test [2], 1470 nM; in test [3], 770 nM.
For `COc1cc2c(Oc3ccc(NC(=O)c4cn(-c5ccccc5OC)cn4)cc3F)ccnc2cc1OCCCN1CCC(C)CC1`, the IC50 in [1] worked out at 300 nM; in test [2], 600 nM; in test [3], 400 nM.
For `COc1cc2c(Oc3ccc(NC(=O)c4cn(-c5ccccc5OC(F)(F)F)cn4)cc3F)ccnc2cc1OCCCN1CCN(C)CC1` the same measures were 170 nM, 120 nM and 130 nM.
The matching figures for `COc1cc2c(Oc3ccc(NC(=O)c4cn(-c5cc(C)ccc5C)cn4)cc3F)ccnc2cc1OCCCN1CCC(C)CC1`: 2220 nM, 5650 nM and 7420 nM.
Turning to `COc1cc2c(Oc3ccc(NC(=O)c4cn(-c5cc(C)ccc5C)cn4)cc3F)ccnc2cc1OCCCN1CCOCC1`, the values for the IC50 in [1], in test [2] and in test [3] were 1960 nM, 3200 nM and 5480 nM, respectively.

The values above are taken from ChEMBL document CHEMBL3872279, “Design, synthesis and biological evaluation of novel 4-(2-fluorophenoxy)quinoline derivatives as selective c-Met inhibitors” (Bioorg Med Chem, 2017).
